These results are taken from patent US9376369B2, “Anti-cholesterolemic compounds and methods of use” (priority 2006, dated 2016).

For data set [1], the system named is human aortic smooth muscle cells. Kind of data set: Cholesterol biosynthesis ([14C]acetate incorporation) in cultured cells with ox-LDL. The format is cell-based. Conditions: for hypocholesterolemic activity: purified compounds isolated from EO, cell-based bioassay. How it is done:
Cells were incubated with aqueous extracts of O. sanctum (JH-1), EO (JH-2), W. somnifera (JH-3) and EuMil (JH-4) at concentration 500 μg/ml in medium supplemented with 100 μg/ml oxidized LDL. Cells incubated with 100 μg/ml ox-LDL served as a control. [14C] acetate (2 μCi/ml) was added and incorporation of radioactivity into cholesterol and cholesteryl esters was measured after 24 h of incubation in standard cell culture conditions. Lovastatin (10 μM) plus ox-LDL served as a positive control.
H-ASMC (×10^5) were seeded in plastic 6-well trays and grown in smooth muscle cells medium-2 (Cambrex). Incubation was pursued in a water-jacketed incubator with 5% CO2 and 95% air. After the cells reached confluence medium was replaced by plain serum-free medium. Following incubation for 24 h fresh medium, 100 μg/ml ox-LDL and various herbal fractions solubilized in 12.5% DMSO were added. Cells that were incubated with lovastatin (10 μM) served as a positive control in all experiments.
Cells were incubated with and without ox-LDL and EuMil/ingredients and [14C] acetate ([…], 24 h). Next, medium was removed; the monolayers were washed three times with PBS. Cells were extracted with hexane:isopropanol (3:2 by volume, 2×3 ml) at room temperature. The extracts were pooled in glass tubes and total lipid extract dried in nitrogen atmosphere. 1N NaOH (1 ml) was added to each tube to solubilize proteins and the incubated overnight in open air. Next, water (2 ml) was added to the air dried tubes, the contents were mixed and utilized for protein measurement using BCA protein assay kit (Pierce, Rockford, Ill.)
The total lipid extracts were dried in stream of nitrogen, re-suspended in chloroform-methanol (2:1 by volume) and applied on a HPTLC silica gel plate. Standard solutions of cholesterol, monolein, diolein, triolein, fatty acid and cholesteryl oleate (50 μg each) also were applied to the plate. The plates were developed in heptane-ether-acetic acid (85:15:1 by volume). Following development, the plates were dried in air and exposed to an X-ray film for 2-3 days at […]. After the films were developed, the HPTLC plates were immersed in iodine vapors to identify the migration of individual neutral lipid molecular species. Gel areas, corresponding to cholesterol were scraped and radioactivity was measured using Beckman liquid scintillation spectrometer. The data was expressed as counts per mg protein. The incorporation of radioactivity in cells incubated with oxidized LDL was considered as 100% (control). All experimental values in cells treated with EuMil/ingredients plus oxidized LDL were expressed as a percentage of the control. All assays were conducted in triplicate.

Data set [2] shares this test system. Kind of data set: Cholesterol efflux ([3H]cholesterol). The settings on record: 24 h with fractions after [3H]cholesterol labelling. The format is cell-based.
Another data set concerns F344 rats. Conditions: both sexes, 5% GA in diet, week 1 to end of 13 weeks; cited from earlier work.
The subject of data set [3] is human aortic smooth muscle cells. Description: Cholesterol uptake ([3H]cholesterol). Type of data set: cell-based. The settings on record: [3H]cholesterol 5 μCi/ml, serum-free medium, 24 h. The method, then:
FIG. 11 is a graph showing the effect of active compounds from EO on uptake of cholesterol in human aortic smooth muscle cells. Confluent culture of cells grown in 96 well plates was incubated in serum-free medium with [3H]cholesterol (5 μCi/ml) with and without active fractions. After 24 h the uptake of cholesterol was measured by scintillation spectrometry.
Confluent culture of human aortic smooth muscle cells were pre-incubated in serum-free DMEM for 24 h. Next, fresh medium and [3H]cholesterol (5 μCi/ml) plus various herbal compounds were added. Following incubation for 24 h and 48 h, [3H]cholesterol taken up by cell was measured by solubilization in 1 M NaOH and radioactivity measured.

For data set [4] the test system is unchanged. Description: Measurement of the level (mass) of cholesterol in cells. Type of data set: cell-based. Conditions: active fractions 5 μg/ml. How it is done: FIG. 9 is a graph showing the effect of active fractions from EO on cholesterol level in human ASMC. Cells were incubated with active fractions (5 μg/ml) and cholesterol mass was determined.
Following treatment cells were extracted with hexane-isopropanol 3:2 by volume as described above. The pooled extracts were dried in a stream of nitrogen and subjected to measurement of total cholesterol mass using a cholesterol kit (WAKO chemicals, VA) with cholesterol as the standard. The data was expressed as μg cholesterol per mg protein.

Data set [5] in a line: Behaviour of mucic acid gallates in aqueous solution. Type of data set: physicochemical. Conditions: as previously reported [22]. From the text: It should be noted that the mucic acid gallates derivatives 7 and 9 equilibrate in aqueous solutions as previously reported, while 1-methyl mucate-2-gallate (8) is not an artifact of the isolation procedure as it could be isolated when only ethanol, water and acetonitrile were used.

The next data set concerns H-ASMC. Description: Cell proliferation ([3H]thymidine incorporation). The format is cell-based, human. The method, then:
Following incubation for 18 h with and without ox-LDL and EuMil/ingredients and lovastatin [3H]thymidine ([…]) was added in 96 well dishes and incubation continued for 6 h at 37° C. Next, the cells were washed and the incorporation of [3H]thymidine into DNA was measured employing scintillation spectrometry. The data was calculated as dpm/well. All experimental values were expressed as a percentage of the control values (cells incubated with ox-LDL alone).
Background: Incorporation of labelled thymidine or its analogues reports DNA synthesis.

Setting [6] is: 10 μM plus 100 μg/ml ox-LDL, 24 h, ox-LDL alone = control.

Turning to `O=C(O)c1cc(O)c(O)c(O)c1` [Compound 1, gallic acid], the hypocholesterolemic activity entry in data set [1] was “hypocholesterolemic active compounds”. Further, the “efflux of cholesterol from cultured H-ASMC” value in data set [2] is “effective”; in data set [2] (listed as gallate), “very effective”. The “body weight gain versus untreated controls” value in the data set with F344 rats was “significantly lower”.

In the case of `COC(=O)c1cc(O)c(O)c(O)c1` [Compound 2a, methyl gallate], the hypocholesterolemic activity result in data set [1] is recorded as “hypocholesterolemic active compounds”. The “efflux of cholesterol from cultured H-ASMC” value in data set [2] was “very effective”. Moreover, the “inhibition of cholesterol uptake in H-ASMC” value in data set [3] is “markedly inhibit”.

For `CCOC(=O)c1cc(O)c(O)c(O)c1` [Compound 2b, ethyl gallate], the hypocholesterolemic activity result in data set [1] was “hypocholesterolemic active compounds”.

As for `O=C(OCC(O)CO)c1cc(O)c(O)c(O)c1` (centres unmarked) [Compound 3, glycerol-1-gallate], the hypocholesterolemic activity result in data set [1] was “hypocholesterolemic active compounds”.

As for `O=C(O[C@@H]1O[C@H](CO)[C@@H](O)[C@H](O)[C@H]1O)c1cc(O)c(O)c(O)c1` [Compound 4, glucose-1-gallate (GG1)], the hypocholesterolemic activity result in data set [1] is reported as “hypocholesterolemic active compounds”.

On to `O=C(OC[C@H]1OC(OC(=O)c2cc(O)c(O)c(O)c2)[C@H](O)[C@@H](O)[C@@H]1O)c1cc(O)c(O)c(O)c1` (some centres unmarked) [Compound 6, glucose-1,6-digallate (DGG16)], for which, in data set [1], the hypocholesterolemic activity result is listed as “hypocholesterolemic active compounds”. The “cellular mass / level of cholesterol in ASMC” value (“cellular mass / level” below) in data set [4] is recorded as “effective in decreasing cholesterol level”.

With `COC(=O)C(OC(=O)c1cc(O)c(O)c(O)c1)C(O)C(O)C(O)C(=O)O` (centres unmarked) [Compound 8, 1-methyl mucate-2-gallate], the hypocholesterolemic activity entry in data set [1] is “hypocholesterolemic active compounds”. Besides, the “cellular mass / level” value in data set [4] was “effective in decreasing cholesterol level”.

Turning to `O=C(OC(C(=O)O)C1OC(=O)C(O)C1O)c1cc(O)c(O)c(O)c1` (centres unmarked) [Compound 9, mucic acid 1,4-lactone 5-gallate], the hypocholesterolemic activity result in data set [1] was “hypocholesterolemic active compounds”. In addition, the “cellular mass / level” value in data set [4] is reported as “effective in decreasing cholesterol level”. For the same compound, the “stability in aqueous solutions” value in data set [5] is recorded as “equilibrate”.

As for `CC[C@H](C)C(=O)O[C@H]1C[C@@H](C)C=C2C=C[C@H](C)[C@H](CC[C@@H]3C[C@@H](O)CC(=O)O3)[C@H]21` [Lovastatin, lovastatin, reference compound], in data set [1] (setting [6]), the “biosynthesis of cholesterol compared to control” value is approximately 20% and the “biosynthesis of cholesteryl esters compared to control” value is listed as approximately 50%. Besides, the “inhibition of cholesterol uptake in H-ASMC” value in data set [3] was “not effective”. Besides, the “effect on cell proliferation” value with H-ASMC is recorded as “did not appear to inhibit”.

Take glucose-6-gallate (GG6) [Compound 5]: the hypocholesterolemic activity entry in data set [1] is listed as “hypocholesterolemic active compounds”. Further, in data set [4], the “cellular mass / level” value is reported as “effective in decreasing cholesterol level”.

For mucic acid-2-gallate [Compound 7], the hypocholesterolemic activity result in data set [1] is given as “hypocholesterolemic active compounds”. Further, the “cellular mass / level” value in data set [4] is recorded as “effective in decreasing cholesterol level”. The “stability in aqueous solutions” value in data set [5] is reported as “equilibrate”.
